Test results as given in the supplement of paper PMC11451515.

Tested on: P12-Ichikawa
Test: cell viability relative to DMSO control; higher = less cytotoxic
Details: 48 h
In short: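 Library compounds in DMSO were pin-dosed in an 11-point threefold series (47 μM to 0.79 nM) onto leukemia cells in 1536-well plates (5 μl). Plates held 500 cells/well of NOMO1 or SEM or 1000 cells/well of P12-Ichikawa, each adapted for at least four passages in each medium. Luminescence was read with CellTiter-Glo One after 48 h at 37°C. Viability means the per-plate percentage relative to DMSO wells, using cell-free wells as background.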

[1] = HPLM + 10% dialyzed FBS, 0.000781 µM
[2] = HPLM + 10% dialyzed FBS, 0.00234 µM
[3] = HPLM + 10% dialyzed FBS, 0.00702 µM
[4] = HPLM + 10% dialyzed FBS, 0.0211 µM
[5] = HPLM + 10% dialyzed FBS, 0.0632 µM
[6] = HPLM + 10% dialyzed FBS, 0.19 µM
[7] = HPLM + 10% dialyzed FBS, 0.569 µM
[8] = HPLM + 10% dialyzed FBS, 1.71 µM
[9] = HPLM + 10% dialyzed FBS, 5.12 µM
[10] = HPLM + 10% dialyzed FBS, 15.4 µM
[11] = HPLM + 10% dialyzed FBS, 46.1 µM
[12] = RPMI 5 mM glucose + 10% FBS, 0.000781 µM
[13] = RPMI 5 mM glucose + 10% FBS, 0.00234 µM
[14] = RPMI 5 mM glucose + 10% FBS, 0.00702 µM
[15] = RPMI 5 mM glucose + 10% FBS, 0.0211 µM
[16] = RPMI 5 mM glucose + 10% FBS, 0.0632 µM
[17] = RPMI 5 mM glucose + 10% FBS, 0.19 µM
[18] = RPMI 5 mM glucose + 10% FBS, 0.569 µM
[19] = RPMI 5 mM glucose + 10% FBS, 1.71 µM
[20] = RPMI 5 mM glucose + 10% FBS, 5.12 µM
[21] = RPMI 5 mM glucose + 10% FBS, 15.4 µM
[22] = RPMI 5 mM glucose + 10% FBS, 46.1 µM
[23] = RPMI 5 mM glucose + 10% dialyzed FBS, 0.000781 µM
[24] = RPMI 5 mM glucose + 10% dialyzed FBS, 0.00234 µM
[25] = RPMI 5 mM glucose + 10% dialyzed FBS, 0.00702 µM
[26] = RPMI 5 mM glucose + 10% dialyzed FBS, 0.0211 µM
[27] = RPMI 5 mM glucose + 10% dialyzed FBS, 0.0632 µM
[28] = RPMI 5 mM glucose + 10% dialyzed FBS, 0.19 µM
[29] = RPMI 5 mM glucose + 10% dialyzed FBS, 0.569 µM
[30] = RPMI 5 mM glucose + 10% dialyzed FBS, 1.71 µM
[31] = RPMI 5 mM glucose + 10% dialyzed FBS, 5.12 µM
[32] = RPMI 5 mM glucose + 10% dialyzed FBS, 15.4 µM
[33] = RPMI 5 mM glucose + 10% dialyzed FBS, 46.1 µM

| SMILES | cell viability [1] [%] | cell viability [2] [%] | cell viability [3] [%] | cell viability [4] [%] | cell viability [5] [%] | cell viability [6] [%] | cell viability [7] [%] | cell viability [8] [%] | cell viability [9] [%] | cell viability [10] [%] | cell viability [11] [%] | cell viability [12] [%] | cell viability [13] [%] | cell viability [14] [%] | cell viability [15] [%] | cell viability [16] [%] | cell viability [17] [%] | cell viability [18] [%] | cell viability [19] [%] | cell viability [20] [%] | cell viability [21] [%] | cell viability [22] [%] | cell viability [23] [%] | cell viability [24] [%] | cell viability [25] [%] | cell viability [26] [%] | cell viability [27] [%] | cell viability [28] [%] | cell viability [29] [%] | cell viability [30] [%] | cell viability [31] [%] | cell viability [32] [%] | cell viability [33] [%] |
| --- | --- | --- | --- | --- | --- | --- | --- | --- | --- | --- | --- | --- | --- | --- | --- | --- | --- | --- | --- | --- | --- | --- | --- | --- | --- | --- | --- | --- | --- | --- | --- | --- | --- |
| O=C(O)CCC1CCC(c2cc(F)ccc2F)([S+](=O)([O-])c2ccc(Cl)cc2)CC1 (stereo unspecified) | 105 | 114 | 117 | 115 | 114 | 121 | 128 | 118 | 86.7 | 21.5 | 9.14 | 99 | 125 | 117 | 126 | 118 | 116 | 128 | 140 | 109 | 24.3 | 9.78 | 103 | 117 | 123 | 123 | 123 | 118 | 124 | 125 | 112 | 56.7 | 13.2 |
| CC1CNc2c(cccc2[S+](=O)([O-])N[C@@H](CCCNC(=N)N)C(=O)N2CC[C@@H](C)C[C@@H]2C(=O)O)C1 (stereo partly specified) | 94.9 | 107 | 104 | 100 | 110 | 118 | 109 | 111 | 116 | 105 | 99.5 | 107 | 113 | 108 | 117 | 116 | 114 | 111 | 116 | 119 | 116 | 98.8 | 101 | 110 | 104 | 101 | 111 | 107 | 107 | 109 | 112 | 103 | 89.4 |
| CC1(C)O[C@@H]2C[C@H]3[C@@H]4C[C@H](F)C5=CC(=O)C=C[C@]5(C)[C@@]4(F)[C@@H](O)C[C@]3(C)[C@]2(C(=O)CO)O1 | 107 | 110 | 99.4 | 83.8 | 71.1 | 56.4 | 69.1 | 60.7 | 52.6 | 62.9 | 53 | 106 | 99.4 | 96.4 | 78.7 | 55.4 | 53.2 | 50.2 | 53 | 51.7 | 46.4 | 43.5 | 74.9 | 103 | 94.6 | 67.9 | 50.8 | 46.7 | 47.6 | 42.5 | 40.6 | 36.8 | 30.4 |
| CNCCCC12CCC(c3ccccc31)c1ccccc12 | 93.5 | 95.7 | 96.7 | 95.5 | 103 | 96.2 | 95.8 | 92.7 | 87.8 | 85.8 | 63.5 | 94.1 | 99.5 | 102 | 103 | 104 | 95.9 | 91.8 | 90.2 | 84.4 | 76.6 | 62.6 | 93 | 98.2 | 96.6 | 101 | 98.3 | 88.7 | 97.7 | 85.7 | 86.5 | 73.1 | 54.8 |
| Cc1nc2cnc3ccc(C#Cc4cccnc4)cc3c2n1-c1ccc(C(C)(C)C#N)cc1 | 84.7 | 89.5 | 86.4 | 87.4 | 63.2 | 56 | 58.4 | 53.7 | 54.2 | 54.4 | 41 | 65.6 | 84.1 | 78.1 | 88.3 | 49.1 | 43.5 | 33.5 | 43.7 | 36.5 | 40.6 | 19.9 | 71.8 | 80.4 | 77 | 89.2 | 53.6 | 49.6 | 36.4 | 36.6 | 33.7 | 37.6 | 24.2 |
| CCN1CCN(c2ccc(Nc3cc(N(C)C(=O)Nc4c(Cl)c(OC)cc(OC)c4Cl)ncn3)cc2)CC1 | 107 | 109 | 103 | 108 | 106 | 97.8 | 97.4 | 105 | 77.7 | 73.3 | 35.3 | 115 | 114 | 119 | 124 | 118 | 118 | 113 | 115 | 86 | 76.7 | 47.6 | 114 | 112 | 108 | 124 | 114 | 126 | 111 | 110 | 76.8 | 66.8 | 53.2 |
| CC(C)(C)NC(=O)Nc1cccc(Nc2ncc(F)c(NC(C)(C)CO)n2)c1 | 105 | 110 | 112 | 114 | 118 | 121 | 117 | 120 | 108 | 14.7 | 24.4 | 114 | 118 | 124 | 121 | 129 | 121 | 122 | 132 | 116 | 35.2 | 40.4 | 120 | 117 | 120 | 116 | 124 | 119 | 117 | 119 | 114 | 34.6 | 51 |
| CCOC(=O)c1ccc(OC(=O)CCCCCNC(=N)N)cc1 | 117 | 121 | 123 | 122 | 125 | 126 | 124 | 76 | 10.7 | 16.3 | 17.4 | – | – | – | – | – | – | – | – | – | – | – | – | – | – | – | – | – | – | – | – | – | – |
| C[C@]12CCC(=O)C=C1CC[C@@H]1[C@@H]2[C@@H](O)C[C@@]2(C)[C@H]1CC[C@]2(O)C(=O)CO | 107 | 106 | 105 | 107 | 111 | 111 | 115 | 94.1 | 89.7 | 88.9 | 84.4 | 104 | 103 | 103 | 115 | 113 | 109 | 104 | 83.2 | 78.4 | 70.9 | 69.2 | 104 | 115 | 107 | 119 | 112 | 114 | 100 | 78.5 | 78.3 | 65.4 | 64.2 |
| COC(=O)Nc1cc(Nc2cc(NC3CC3)c3ncc(C#N)n3n2)c(Cl)c(N2CCN(C)CC2)c1 | 107 | 102 | 102 | 111 | 106 | 97.4 | 106 | 103 | 76.8 | 65.3 | 3.92 | 104 | 104 | 102 | 106 | 105 | 108 | 105 | 92.8 | 67 | 41.5 | 4.51 | 106 | 108 | 111 | 108 | 109 | 102 | 104 | 95 | 63.7 | 36.1 | 4.2 |
| CN(C)[S+](=O)([O-])c1ccc2c(c1)C(=Cc1cc3c([nH]1)CCCC3)C(=O)N2 | 124 | 114 | 122 | 121 | 123 | 117 | 125 | 122 | 111 | 110 | 112 | – | – | – | – | – | – | – | – | – | – | – | 118 | 125 | 121 | 116 | 114 | 125 | 128 | 124 | 122 | 106 | 108 |
| CNc1nc(Nc2ccc(C(=O)N3CCOCC3)cc2OC)ncc1Cl | – | – | – | – | – | – | – | – | – | – | – | 120 | 116 | 122 | 119 | 120 | 115 | 113 | 107 | 108 | 108 | 101 | 123 | 115 | 121 | 116 | 123 | 125 | 116 | 124 | 112 | 109 | 104 |
| CC[C@H](NC1=C2N=C[NH]C2=NC=N1)C/3=N/C4=C(C(=CC=C4)F)C(=O)N3C5=CC=CC=C5 | 125 | 118 | 122 | 131 | 133 | 120 | 115 | 118 | 101 | 88.9 | 56.3 | 114 | 115 | 118 | 120 | 128 | 104 | 86.6 | 94.7 | 78.2 | 61.9 | 50.2 | 124 | 123 | 125 | 132 | 131 | 115 | 99.7 | 98.7 | 91.7 | 70.7 | 51.9 |
| O=C(c1ccc(F)cc1)N1CCC[C@H](c2nc(-c3ccc(F)cc3)no2)C1 | 119 | 121 | 120 | 124 | 117 | 121 | 116 | 113 | 107 | 113 | 106 | 115 | 122 | 122 | 128 | 144 | 120 | 128 | 116 | 111 | 114 | 115 | 120 | 128 | 123 | 119 | 117 | 126 | 116 | 105 | 118 | 110 | 111 |
| N#CCNC(=O)c1ccc(-c2ccnc(Nc3ccc(N4CCOCC4)cc3)n2)cc1 | 98.6 | 108 | 118 | 114 | 110 | 110 | 98.8 | 111 | 111 | 77.6 | 34 | 97.9 | 102 | 120 | 115 | 111 | 109 | 95.6 | 108 | 102 | 65.6 | 34 | 115 | 103 | 109 | 113 | 109 | 109 | 99.5 | 98.2 | 97.6 | 70.8 | 25.3 |
